Data published in US10544089B2, “Innovative preparation and crystallization of iosimenol” (OTSUKA PHARMACEUTICAL CO., LTD., priority 2015, dated 2020).

Experiments:
[1] = Solubility of iosimenol in organic solvents (crystallization attempts); type: physicochemical
Text: The present inventors applied crystallization methods described in literature, but this approach always failed, independently on using crude or purified iosimenol. If any solid was obtained, we usually obtained solid of gummy consistency and we never observed any purity increase.

[2] = Heat stability of iosimenol in crystallization solution (colour change, impurities); type: physicochemical; conditions: between 80-110° C.
Text: Although contrast media are relatively stable compounds, usually after a long-term exposure to heat, certain degradation may occur. The most vulnerable are amide groups and covalently bound iodine. In case of iosimenol, the acidic hydrogens on aliphatic carbon of malonyl group may cause cleavage of the bridge at higher temperature and can lead to form monomeric impurities. These all mentioned degradations are more intensive under strong acidic or strong basic conditions. Using our experience in formulation of iosimenol, we used trometamol as a buffer to control pH between 6-7 from the viewpoint of influencing of color. Ideal conditions for iosimenol crystallization are when the crystallization is performed at shortest process time at lowest possible temperature under suitable and controlled pH between 6-7 by buffer from the viewpoint of influencing of color.
Therefore, ideal conditions for crystallization are temperatures between 80-110° C., pH 6-7 and as short as possible time for crystallization.

NC(=O)c1c(I)c(C(=O)NCC(O)CO)c(I)c(N(CC(O)CO)C(=O)CC(=O)N(CC(O)CO)c2c(I)c(C(N)=O)c(I)c(C(=O)NCC(O)CO)c2I)c1I (stereo not drawn) [iosimenol, N,N′-bis[3-carbamoyl-5-(2,3-dihydroxypropyl-carbamoyl)-2,4,6-triiodophenyl]-N,N′-bis(2,3-dihydroxypropyl)-malonamide]
solubility in solvents ([1]; alcohols, ethers and alkoxyalcohols): practically insoluble | solubility in aprotic solvents ([1]; aprotic solvents like dimethylformamide): extremely high solubility | degradation on heating (impurities) [2]: no new impurities or increased level of known impurities are observed
